According to patent publication EP0913089A1, “Synergistic herbicidal composition containing R-imazethapyr and R-imazapyr and method for controlling weeds therewith” (American Cyanamid Company, priority 1997, dated 1999):

Columns and labels:
Assay in all cases: Greenhouse postemergence weed control, visual rating (Example 1)
Design in all cases: scale not given here
Conditions in all cases: approx. 3 weeks after treatment
CHEAL = type: in vivo, Chenopodium album, L.
Description: (§1) In this evaluation, plants are grown in standard greenhouse soil for 10-14 days until they are at the 2-to 4-leaf stage. Said plants are then sprayed with an aqueous solution of the test compounds which contains 0.25% of a non-ionic surfactant and 1% of a 28-0-0 liquid fertilizer. Each treatment is replicated 3 to 4 times. Approximately 3 weeks after treatment visual ratings are made using the rating scale shown below. The data are averaged and shown on Table I. [table] [table]

AMBEL = type: in vivo, Ambrosia artemisiifolia, L.
Description: as §1

SETVI = type: in vivo, Setaria viridis, (L) Beauv
Description: as §1

ABUTH = type: in vivo, Abutilon theophrasti, Medic.
Description: as §1

CC(C)[C@@]1(C)N=C(c2ncccc2C(=O)O)NC1=O [R-Imazapyr, R-imazapyr]
WEED CONTROL CHEAL (CHEAL; Rate 1.34 g/ha): 7.3 | WEED CONTROL CHEAL (CHEAL; Rate 2.68 g/ha): 7.8 | WEED CONTROL CHEAL (CHEAL; Rate 5.36 g/ha): 8.3 | WEED CONTROL CHEAL (CHEAL; Rate 10.72 g/ha): 9.0 | WEED CONTROL CHEAL (CHEAL; Rate 21.44 g/ha): 9.0 | WEED CONTROL CHEAL (CHEAL; Rate 32.16 g/ha): 9.0 | WEED CONTROL CHEAL (CHEAL; Rate 42.88 g/ha): 9.0 | WEED CONTROL AMBEL (AMBEL; Rate 1.34 g/ha): 1.5 | WEED CONTROL AMBEL (AMBEL; Rate 2.68 g/ha): 4.5 | WEED CONTROL AMBEL (AMBEL; Rate 5.36 g/ha): 5.0 | WEED CONTROL AMBEL (AMBEL; Rate 10.72 g/ha): 6.3 | WEED CONTROL AMBEL (AMBEL; Rate 21.44 g/ha): 7.5 | WEED CONTROL AMBEL (AMBEL; Rate 32.16 g/ha): 9.0 | WEED CONTROL AMBEL (AMBEL; Rate 42.88 g/ha): 8.5 | WEED CONTROL SETVI (SETVI; Rate 1.34 g/ha): 6.0 | WEED CONTROL SETVI (SETVI; Rate 2.68 g/ha): 7.5 | WEED CONTROL SETVI (SETVI; Rate 5.36 g/ha): 8.0 | WEED CONTROL SETVI (SETVI; Rate 10.72 g/ha): 9.0 | WEED CONTROL SETVI (SETVI; Rate 21.44 g/ha): 9.0 | WEED CONTROL SETVI (SETVI; Rate 32.16 g/ha): 9.0 | WEED CONTROL SETVI (SETVI; Rate 42.88 g/ha): 9.0 | WEED CONTROL ABUTH (ABUTH; Rate 1.34 g/ha): 4.3 | WEED CONTROL ABUTH (ABUTH; Rate 2.68 g/ha): 5.8 | WEED CONTROL ABUTH (ABUTH; Rate 5.36 g/ha): 7.3 | WEED CONTROL ABUTH (ABUTH; Rate 10.72 g/ha): 8.0 | WEED CONTROL ABUTH (ABUTH; Rate 21.44 g/ha): 9.0 | WEED CONTROL ABUTH (ABUTH; Rate 32.16 g/ha): 9.0 | WEED CONTROL ABUTH (ABUTH; Rate 42.88 g/ha): 9.0

CCc1cnc(C2=NC(C)(C(C)C)C(=O)N2)c(C(=O)O)c1 (racemic) [Imazethapyr]
WEED CONTROL CHEAL (CHEAL; Rate 4.00 g/ha): 2.5 | WEED CONTROL CHEAL (CHEAL; Rate 8.00 g/ha): 2.3 | WEED CONTROL CHEAL (CHEAL; Rate 16.00 g/ha): 3.5 | WEED CONTROL CHEAL (CHEAL; Rate 32.00 g/ha): 7.0 | WEED CONTROL CHEAL (CHEAL; Rate 64.00 g/ha): 8.0 | WEED CONTROL CHEAL (CHEAL; Rate 96.00 g/ha): 9.0 | WEED CONTROL CHEAL (CHEAL; Rate 128.00 g/ha): 9.0 | WEED CONTROL AMBEL (AMBEL; Rate 4.00 g/ha): 2.5 | WEED CONTROL AMBEL (AMBEL; Rate 8.00 g/ha): 2.8 | WEED CONTROL AMBEL (AMBEL; Rate 16.00 g/ha): 4.0 | WEED CONTROL AMBEL (AMBEL; Rate 32.00 g/ha): 6.0 | WEED CONTROL AMBEL (AMBEL; Rate 64.00 g/ha): 6.5 | WEED CONTROL AMBEL (AMBEL; Rate 96.00 g/ha): 7.5 | WEED CONTROL AMBEL (AMBEL; Rate 128.00 g/ha): 8.8 | WEED CONTROL SETVI (SETVI; Rate 4.00 g/ha): 3.5 | WEED CONTROL SETVI (SETVI; Rate 8.00 g/ha): 4.5 | WEED CONTROL SETVI (SETVI; Rate 16.00 g/ha): 4.3 | WEED CONTROL SETVI (SETVI; Rate 32.00 g/ha): 6.0 | WEED CONTROL SETVI (SETVI; Rate 64.00 g/ha): 7.5 | WEED CONTROL SETVI (SETVI; Rate 96.00 g/ha): 9.0 | WEED CONTROL SETVI (SETVI; Rate 128.00 g/ha): 9.0 | WEED CONTROL ABUTH (ABUTH; Rate 4.00 g/ha): 2.5 | WEED CONTROL ABUTH (ABUTH; Rate 8.00 g/ha): 3.0 | WEED CONTROL ABUTH (ABUTH; Rate 16.00 g/ha): 4.0 | WEED CONTROL ABUTH (ABUTH; Rate 32.00 g/ha): 6.3 | WEED CONTROL ABUTH (ABUTH; Rate 64.00 g/ha): 6.3 | WEED CONTROL ABUTH (ABUTH; Rate 96.00 g/ha): 9.0 | WEED CONTROL ABUTH (ABUTH; Rate 128.00 g/ha): 9.0

CCc1cnc(C2=N[C@](C)(C(C)C)C(=O)N2)c(C(=O)O)c1 [R-Imazethapyr, R-imazethapyr]
WEED CONTROL CHEAL (CHEAL; Rate 2.68 g/ha): 2.3 | WEED CONTROL CHEAL (CHEAL; Rate 5.36 g/ha): 3.8 | WEED CONTROL CHEAL (CHEAL; Rate 10.72 g/ha): 4.0 | WEED CONTROL CHEAL (CHEAL; Rate 21.44 g/ha): 6.8 | WEED CONTROL CHEAL (CHEAL; Rate 42.88 g/ha): 7.0 | WEED CONTROL CHEAL (CHEAL; Rate 64.30 g/ha): 9.0 | WEED CONTROL CHEAL (CHEAL; Rate 85.76 g/ha): 9.0 | WEED CONTROL AMBEL (AMBEL; Rate 2.68 g/ha): 3.8 | WEED CONTROL AMBEL (AMBEL; Rate 5.36 g/ha): 3.5 | WEED CONTROL AMBEL (AMBEL; Rate 10.72 g/ha): 3.0 | WEED CONTROL AMBEL (AMBEL; Rate 21.44 g/ha): 4.8 | WEED CONTROL AMBEL (AMBEL; Rate 42.88 g/ha): 6.5 | WEED CONTROL AMBEL (AMBEL; Rate 64.30 g/ha): 8.8 | WEED CONTROL AMBEL (AMBEL; Rate 85.76 g/ha): 9.0 | WEED CONTROL SETVI (SETVI; Rate 2.68 g/ha): 4.8 | WEED CONTROL SETVI (SETVI; Rate 5.36 g/ha): 4.5 | WEED CONTROL SETVI (SETVI; Rate 10.72 g/ha): 5.5 | WEED CONTROL SETVI (SETVI; Rate 21.44 g/ha): 6.5 | WEED CONTROL SETVI (SETVI; Rate 42.88 g/ha): 7.5 | WEED CONTROL SETVI (SETVI; Rate 64.30 g/ha): 9.0 | WEED CONTROL SETVI (SETVI; Rate 85.76 g/ha): 9.0 | WEED CONTROL ABUTH (ABUTH; Rate 2.68 g/ha): 4.8 | WEED CONTROL ABUTH (ABUTH; Rate 5.36 g/ha): 4.8 | WEED CONTROL ABUTH (ABUTH; Rate 10.72 g/ha): 4.8 | WEED CONTROL ABUTH (ABUTH; Rate 21.44 g/ha): 6.8 | WEED CONTROL ABUTH (ABUTH; Rate 42.88 g/ha): 7.0 | WEED CONTROL ABUTH (ABUTH; Rate 64.30 g/ha): 9.0 | WEED CONTROL ABUTH (ABUTH; Rate 85.76 g/ha): 9.0

CC(C)C1(C)N=C(c2ncccc2C(=O)O)NC1=O (racemic) [Imazapyr]
WEED CONTROL CHEAL (CHEAL; Rate 2.016 g/ha): 6.3 | WEED CONTROL CHEAL (CHEAL; Rate 4.00 g/ha): 8.0 | WEED CONTROL CHEAL (CHEAL; Rate 8.00 g/ha): 8.8 | WEED CONTROL CHEAL (CHEAL; Rate 16.00 g/ha): 9.0 | WEED CONTROL CHEAL (CHEAL; Rate 32.00 g/ha): 9.0 | WEED CONTROL CHEAL (CHEAL; Rate 48.00 g/ha): 9.0 | WEED CONTROL CHEAL (CHEAL; Rate 64.00 g/ha): 9.0 | WEED CONTROL AMBEL (AMBEL; Rate 2.016 g/ha): 2.5 | WEED CONTROL AMBEL (AMBEL; Rate 4.00 g/ha): 4.0 | WEED CONTROL AMBEL (AMBEL; Rate 8.00 g/ha): 5.0 | WEED CONTROL AMBEL (AMBEL; Rate 16.00 g/ha): 7.0 | WEED CONTROL AMBEL (AMBEL; Rate 32.00 g/ha): 7.8 | WEED CONTROL AMBEL (AMBEL; Rate 48.00 g/ha): 8.8 | WEED CONTROL AMBEL (AMBEL; Rate 64.00 g/ha): 8.8 | WEED CONTROL SETVI (SETVI; Rate 2.016 g/ha): 5.3 | WEED CONTROL SETVI (SETVI; Rate 4.00 g/ha): 6.8 | WEED CONTROL SETVI (SETVI; Rate 8.00 g/ha): 9.0 | WEED CONTROL SETVI (SETVI; Rate 16.00 g/ha): 9.0 | WEED CONTROL SETVI (SETVI; Rate 32.00 g/ha): 9.0 | WEED CONTROL SETVI (SETVI; Rate 48.00 g/ha): 9.0 | WEED CONTROL SETVI (SETVI; Rate 64.00 g/ha): 9.0 | WEED CONTROL ABUTH (ABUTH; Rate 2.016 g/ha): 4.8 | WEED CONTROL ABUTH (ABUTH; Rate 4.00 g/ha): 6.3 | WEED CONTROL ABUTH (ABUTH; Rate 8.00 g/ha): 7.5 | WEED CONTROL ABUTH (ABUTH; Rate 16.00 g/ha): 8.5 | WEED CONTROL ABUTH (ABUTH; Rate 32.00 g/ha): 9.0 | WEED CONTROL ABUTH (ABUTH; Rate 48.00 g/ha): 9.0 | WEED CONTROL ABUTH (ABUTH; Rate 64.00 g/ha): 9.0
